Data on two molecules can be found in patent US10301295B2, “Herbicidal compounds” (Syngenta Participations AG, priority 2014, dated 2019).

Common to all, as to type: in vivo
For experiment [1], the system named is Echinochloa crus-galli (ECHCG). Kind of experiment: Glasshouse assay for herbicidal activity, pre-/post-emergence (percentage phytotoxicity). The conditions noted are these: Echinochloa crus-galli, Rate 250 g/ha, 100%=total damage, 0%=no damage. The gist of the method:
(§1)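 Percentage phytotoxicity was assessed visually, 100% meaning total plant damage and 0% none, at 20 days after application for pre-emergence and 15 days for post-emergence. Plants were potted in standard soil and treated after 1 day or about 12 days of growth.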

In the next experiment the test system is Lolium perenne (LOLPE). The description is as above. The settings on record: Lolium perenne, Rate 250 g/ha, 100%=total damage, 0%=no damage. The gist of the method:
as §1

Another experiment concerns Avena fatua (AVEFA). Described as above. The conditions noted are these: Avena fatua, Rate 250 g/ha, 100%=total damage, 0%=no damage. The gist of the method: as §1
Experiment [2] relates to Alopecurus myosuroides (ALOMY). The description is as above. The settings on record: Alopecurus myosuroides, Rate 250 g/ha, 100%=total damage, 0%=no damage. The gist of the method: as §1
Another experiment relates to wheat. Kind of experiment: Post-emergence herbicidal activity against cereal crops (wheat) +/- safener, crop selectivity. The conditions noted are these: 100%=total damage to plant, 0%=no damage; for Post-emergence herbicidal activity against wheat (percentage phytotoxicity), +CQC: 250 g/ha, plus safener cloquintocet-mexyl (CQC) applied at 50 g/ha; for percent phytotoxicity (crop damage) to wheat at 250 g/ha: Triticum aestivum, 360 h, without safener, read-out: Post-emergence herbicidal activity against wheat (percentage phytotoxicity), Wheat - CQC. A digest of the protocol: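 Test plants raised in pots in a glasshouse (24/18 °C warm or 20/16 °C cool species day/night, 16 h light, 65% humidity) and treated post-emergence about 12 days after sowing. Visual percentage phytotoxicity scored 15 days after application (0% = no damage, 100% = total damage).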

Where [3] appears, read: post-emergence, 360 h, post-emergence, visual assessment 15 DAA, read-out: Post-emergence herbicidal activity (percentage phytotoxicity), ECHCG POST.
[4] abbreviates: pre-emergence, 480 h, pre-emergence, visual assessment 20 DAA, read-out: Pre-emergence herbicidal activity (percentage phytotoxicity), ECHCG PRE.
Setting [5] is: post-emergence, 360 h, post-emergence, visual assessment 15 DAA, read-out: Post-emergence herbicidal activity (percentage phytotoxicity), LOLPE POST.
The mark [6] stands for this setting: pre-emergence, 480 h, pre-emergence, visual assessment 20 DAA, read-out: Pre-emergence herbicidal activity (percentage phytotoxicity), LOLPE PRE.
Where [7] appears, read: post-emergence, 360 h, post-emergence, visual assessment 15 DAA, read-out: Post-emergence herbicidal activity (percentage phytotoxicity), AVEFA POST.
Setting [8] is: pre-emergence, 480 h, pre-emergence, visual assessment 20 DAA, read-out: Pre-emergence herbicidal activity (percentage phytotoxicity), AVEFA PRE.
The mark [9] stands for this setting: 360 h, post-emergence, visual assessment 15 DAA, read-out: Post-emergence herbicidal activity (percentage phytotoxicity), ALOMY POST.
Setting [10] is: 480 h, pre-emergence, visual assessment 20 DAA, read-out: Pre-emergence herbicidal activity (percentage phytotoxicity), ALOMY PRE.

Where two headings read alike, the source gives them in different places.

As to `Cc1cc(-n2cc(Cl)cn2)cc(C)c1C1C(=O)CC(CCNC(=O)NC(C)(C)C)C1=O` (centres unmarked) [Compound A21], the pest or weed control at 250 g/ha in experiment [1] (setting [3]) is 100%; in experiment [1] (setting [4]), 100%; with Lolium perenne (LOLPE) (setting [5]) it was 90%; in the experiment on Lolium perenne (LOLPE) (setting [6]), 80%; in the experiment with Avena fatua (AVEFA) (setting [7]) it was 100%; in the experiment on Avena fatua (AVEFA) (setting [8]), 90%. Further, the pest or weed control at 250 g/ha in experiment [2] (setting [9]) and in experiment [2] (setting [10]) was 90% each time. Besides, in the experiment with wheat, the “Post-emergence herbicidal activity against wheat (percentage phytotoxicity), +CQC” value stood at 70%. Besides, the percent phytotoxicity (crop damage) to wheat at 250 g/ha in the experiment with wheat came out at 90%.
For the molecule `Cc1cc(C)c(C2C(=O)CC(CCNC(=O)N(C)Cc3ccccc3)C2=O)c(C)c1` (centres unmarked) [Compound A10], the pest or weed control at 250 g/ha was 90% in experiment [1] (setting [3]); 0% in experiment [1] (setting [4]); 90% in the experiment on Lolium perenne (LOLPE) (setting [5]); 0% in the experiment on Lolium perenne (LOLPE) (setting [6]); 80% with Avena fatua (AVEFA) (setting [7]); 0% in the experiment with Avena fatua (AVEFA) (setting [8]). Also, the figures for the pest or weed control at 250 g/ha in experiment [2] (setting [9]) and in experiment [2] (setting [10]) were 80% and 0%, respectively. Further, the “Post-emergence herbicidal activity against wheat (percentage phytotoxicity), +CQC” value in the experiment with wheat was 20%. For the same molecule, in the experiment on wheat, the percent phytotoxicity (crop damage) to wheat at 250 g/ha is 70%.
